What was measured:
xyl3.2 = tested on: T1, xyl3.2; experiment: 4-nitrophenol release, […] nm, Michaelis-Menten fit; type: biochemical, synthetic construct; conditions: 37 °C, 50 mM Tris pH 6.5, 150 mM NaCl; MBP fusion
T1 construct: computational design (112 mutations to nearest natural protein), N-terminal His6-MBP fusion kept

[1] = target: T2, GH10 from S. lividans (PDB ID 1E0V) (Streptomyces lividans, UniProt P26514); experiment: 4-nitrophenol release, […] nm; type: biochemical; conditions: 37 °C, 50 mM Tris pH 6.5, 150 mM NaCl; MBP fusion
T2 construct: gene xlnA; synthetic codon-optimised gene, N-terminal His6-MBP fusion kept in assay, E. coli BL21 DE3; probably catalytic domain as in 1E0V
T2 sequence (P26514 42-354): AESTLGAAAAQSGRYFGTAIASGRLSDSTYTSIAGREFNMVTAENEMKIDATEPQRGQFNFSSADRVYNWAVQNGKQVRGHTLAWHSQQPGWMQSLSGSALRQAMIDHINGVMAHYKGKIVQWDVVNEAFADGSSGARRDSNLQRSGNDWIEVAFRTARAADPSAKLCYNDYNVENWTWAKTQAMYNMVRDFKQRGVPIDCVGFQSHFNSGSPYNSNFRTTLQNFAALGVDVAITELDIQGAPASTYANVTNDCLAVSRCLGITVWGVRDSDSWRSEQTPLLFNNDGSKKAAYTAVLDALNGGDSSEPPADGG

pll2.4 = tested on: T3, pll2.4; type: biochemical, synthetic construct
T3 construct: computational design (60 mutations to nearest natural protein), N-terminal His6-MBP fusion kept

pll4.1 = tested on: T4, pll4.1; type: biochemical, synthetic construct
T4 construct: computational design (85 mutations to nearest natural protein), N-terminal His6-MBP fusion kept

pll2.2 = tested on: T5, pll2.2; type: biochemical, synthetic construct
T5 construct: computational design (54 mutations to nearest natural protein), N-terminal His6-MBP fusion kept

For `O=[N+]([O-])c1ccc(O[C@@H]2OC[C@@H](O[C@@H]3OC[C@@H](O)[C@H](O)[C@H]3O)[C@H](O)[C@H]2O)cc1` [4-nitrophenyl β-xylobioside], the Km (xyl3.2) was 160 ± 20 µM and the kcat/KM [1] was “Catalytic efficiency of GH10 designs with OPNPX2 compared to natural GH10 enzymes”.

`CCCCSC1CCC(=O)O1` (centres unmarked) [5-thiobutyl butyrolactone] showed a Km (pll2.4) of 82 µM, a Km (pll4.1) of 350 µM and a Km (pll2.2) of 180 µM.

— paper PMC6050298, “Highly active enzymes by automated combinatorial backbone assembly and sequence design” (Nature Communications, 2018)
